{"source": "patent US6878742B2", "about": "“Heterocyclic sulfonamide inhibitors of beta amyloid production” (Wyeth, priority 2000, dated 2005)", "note": "Values joined by “and” are separate entries in the source; they are usually repeats but may differ in a detail not shown here. Equal entries are not always repeated."}
{"test_system": "amyloid precursor protein (APP) proteolysis", "assay": "Repressor Release Assay (RRA)", "assay_type": "cell-based", "conditions": "Conc 0.3 μg/mL; luciferase activity over diluent control", "procedure,_shortened": "(§1)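 This repressor release assay monitors APP proteolysis in mammalian cells. Transfected CHO-K1 cells (pRSVO-luc plus APP-lacI) were seeded at […], treated with compound diluted in 25 mM Hepes, then incubated 36-48 hours. After replacing media with PBS and adding LucLite lysis/substrate buffer, luminescence was measured, and fold increase over diluent control was calculated.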", "units": {"APPI Fold Increase": "fold"}}
{"compound": "CC[C@H](C)[C@@H](CO)NS(=O)(=O)c1cc(Cl)sc1Cl", "note": "[Example 5]", "APPI Fold Increase": 0.9}
{"test_system": "amyloid precursor protein (APP) proteolysis", "assay": "Repressor Release Assay (RRA)", "assay_type": "cell-based", "conditions": "Conc 1 μg/mL; luciferase activity over diluent control", "procedure,_shortened": "as §1", "units": {"APPI Fold Increase": "fold"}}
{"compound": "CC[C@H](C)[C@@H](CO)NS(=O)(=O)c1cc(Cl)sc1Cl", "note": "[Example 5]", "APPI Fold Increase": 0.9}
{"test_system": "amyloid precursor protein (APP) proteolysis", "assay": "Repressor Release Assay (RRA)", "assay_type": "cell-based", "conditions": "Conc 1 μg/mL; luciferase activity over diluent control; read-out: APPI Fold Increase", "procedure,_shortened": "as §1"}
{"compound": "CC(C)[C@@H](CO)NS(=O)(=O)c1ccc(Cl)s1", "note": "[Example 8, 5-Chloro-N-[(1S)-1-(hydroxymethyl)-2-methylpropyl]thiophene-2-sulfonamide]", "fold induction at 1 µg/mL": 1.5}
{"test_system": "amyloid precursor protein (APP) proteolysis", "assay": "Repressor Release Assay (RRA)", "assay_type": "cell-based", "conditions": "Conc 3 μg/mL; luciferase activity over diluent control", "procedure,_shortened": "as §1"}
{"compound": "CC(c1ccccc1)C(CO)NS(=O)(=O)c1ccc(Cl)s1", "note": "(mixture of isomers) [Example 14]", "APPI Fold Increase": "1.87 fold and 3.33 fold"}
{"compound": "CC[C@H](C)[C@@H](CO)NS(=O)(=O)c1cc(Cl)sc1Cl", "note": "[Example 5]", "APPI Fold Increase": "1.1 fold"}
{"test_system": "amyloid precursor protein (APP) proteolysis", "assay": "Repressor Release Assay (RRA)", "assay_type": "cell-based", "conditions": "Conc 3 μg/mL; luciferase activity over diluent control; read-out: APPI Fold Increase", "procedure,_shortened": "as §1"}
{"compound": "CC(C)[C@@H](CO)NS(=O)(=O)c1ccc(Cl)s1", "note": "[Example 8, 5-Chloro-N-[(1S)-1-(hydroxymethyl)-2-methylpropyl]thiophene-2-sulfonamide]", "fold induction at 3 µg/mL": 2.5}
{"test_system": "amyloid precursor protein (APP) proteolysis", "assay": "Repressor Release Assay (RRA)", "assay_type": "cell-based", "conditions": "Conc 10 μg/mL; luciferase activity over diluent control", "procedure,_shortened": "as §1"}
{"compound": "CC(c1ccccc1)C(CO)NS(=O)(=O)c1ccc(Cl)s1", "note": "(mixture of isomers) [Example 14]", "APPI Fold Increase": "3.45 fold"}
{"compound": "CC(C)(C)[C@@H](CO)NS(=O)(=O)c1ccc(Br)s1", "note": "[Example 113]", "APPI Fold Increase": "2.86 fold"}
{"compound": "CCCCCC(O)C(NS(=O)(=O)c1ccc(Cl)s1)C(C)CC", "note": "(mixture of isomers) [Example 122]", "APPI Fold Increase": "1.68 fold and 1.8 fold"}
{"compound": "CC[C@H](C)[C@@H](CO)NS(=O)(=O)c1cc(Cl)sc1Cl", "note": "[Example 5]", "APPI Fold Increase": "1.1 fold"}
{"compound": "O=S(=O)(N[C@H](CO)CC1CCCCC1)c1ccc(Br)s1", "note": "[Example 110]", "APPI Fold Increase": "1.71 fold"}
{"compound": "CCCCCCC(O)C(NS(=O)(=O)c1ccc(Cl)s1)C(C)CC", "note": "(mixture of isomers) [Example 121]", "APPI Fold Increase": "1.74 fold and 1.5 fold and 1.56 fold"}
{"test_system": "amyloid precursor protein (APP) proteolysis", "assay": "Repressor Release Assay (RRA)", "assay_type": "cell-based", "conditions": "Conc 10 μg/mL; luciferase activity over diluent control; read-out: APPI Fold Increase", "procedure,_shortened": "as §1"}
{"compound": "CC[C@H](C)[C@H](NS(=O)(=O)c1cccs1)C(O)C1CCCC1", "note": "(stereo partly drawn) [Example 140, N-{(S,S)-1-[cyclopentyl(hydroxy)methyl]-2-methylbutyl}thiophene-2-sulfonamide]", "fold induction at 10 µg/mL": 2.57}
{"compound": "C=CCC(O)[C@@H](NS(=O)(=O)c1cccs1)[C@@H](C)CC", "note": "(stereo partly drawn) [Example 147, N-{(S)-2-hydroxy-1-[(S)-1-methylpropyl]pent-4-enyl}thiophene-2-sulfonamide]", "fold induction at 10 µg/mL": 2.04}
{"compound": "CC(c1ccccc1)C(CO)NS(=O)(=O)c1ccc(Br)s1", "note": "(racemic) [Example 15, 5-bromo-N-[1-(hydroxymethyl)-2-phenylpropyl]thiophene-2-sulfonamide]", "fold induction at 10 µg/mL": 3.08}
{"compound": "CC[C@H](C)[C@H](NS(=O)(=O)c1cccs1)C(O)C(C)(C)C", "note": "(stereo partly drawn) [Example 145, N-{(S)-2-hydroxy-3,3-dimethyl-1-[(S)-1-methylpropyl]butyl}thiophene-2-sulfonamide]", "fold induction at 10 µg/mL": 1.72}
{"compound": "CC[C@H](C)[C@H](NS(=O)(=O)c1ccc(Cl)s1)C(O)C=C(C)C", "note": "(stereo partly drawn) [Example 132, 5-chloro-N-{(S)-2-hydroxy-4-methyl-1-[(S)-1-methylpropyl]pent-3-enyl}thiophene-2-sulfonamide]", "fold induction at 10 µg/mL": 1.68}
{"compound": "CC[C@H](C)[C@H](NS(=O)(=O)c1cccs1)C(O)c1ccccc1C", "note": "(stereo partly drawn) [Example 144, N-{(S,S)-1-[hydroxy(2-methylphenyl)methyl]-2-methylbutyl}thiophene-2-sulfonamide]", "fold induction at 10 µg/mL": 1.51}
{"compound": "CC(C)[C@@H](CO)NS(=O)(=O)c1ccc(Cl)s1", "note": "[Example 8, 5-Chloro-N-[(1S)-1-(hydroxymethyl)-2-methylpropyl]thiophene-2-sulfonamide]", "fold induction at 10 µg/mL": 3.7}
{"compound": "CC#CC(O)[C@@H](NS(=O)(=O)c1cccs1)[C@@H](C)CC", "note": "(stereo partly drawn) [Example 152, N-{(S)-2-hydroxy-1-[(S)-1-methylpropyl]pent-3-ynyl}thiophene-2-sulfonamide]", "fold induction at 10 µg/mL": 1.51}
{"test_system": "amyloid precursor protein (APP) proteolysis", "assay": "Repressor Release Assay (RRA)", "assay_type": "cell-based", "conditions": "Conc 20 μg/mL; luciferase activity over diluent control", "procedure,_shortened": "as §1"}
{"compound": "CCC[C@@H](O)[C@@H](NS(=O)(=O)c1ccc(Cl)s1)[C@@H](C)CC", "note": "[Example 187, 5-chloro-N-{(S,R)-2-hydroxy-1-[(S)-1-methylpropyl]pentyl}thiophene-2-sulfonamide]", "APPI Fold Increase": "5.7 fold and 3 fold"}
{"compound": "O=S(=O)(N[C@H](CO)CC1CCCCC1)c1ccc(Br)s1", "note": "[Example 110]", "APPI Fold Increase": "2.9 fold and 2.3 fold and 3.6 fold"}
{"compound": "O=S(=O)(NC1(CO)Cc2ccccc2C1)c1ccc(Cl)s1", "note": "[Example 180]", "APPI Fold Increase": "2.3 fold"}
{"compound": "5-bromo-N-{(S,S)-2-hydroxy-1-[(S)-1-methylpropyl]pent-4-enyl}thiophene-2-sulfonamide [Example 194]", "APPI Fold Increase": "9 fold and 5.3 fold"}
{"compound": "5-bromo-N-{(S,S)-1-[(S)-1-hydroxyethyl]-2-methylbutyl}thiophene-2-sulfonamide [Example 190]", "APPI Fold Increase": "4.4 fold and 2.6 fold"}
{"compound": "5-bromo-N-{(S,S)-1-[R-1-hydroxyethyl]-2-methylbutyl}thiophene-2-sulfonamide [Example 191]", "APPI Fold Increase": "5.4 fold and 4.8 fold"}
{"test_system": "amyloid precursor protein (APP) proteolysis", "assay": "Repressor Release Assay (RRA)", "assay_type": "cell-based", "conditions": "Conc 20 μg/mL; luciferase activity over diluent control; read-out: APPI Fold Increase", "procedure,_shortened": "as §1"}
{"compound": "C=C(C)CC(O)C1(NS(=O)(=O)c2ccc(Cl)s2)CCCCC1", "note": "(centres unmarked) [Example 198, 5-chloro-N-[1-(1-hydroxy-3-methylbut-3-enyl)cyclohexyl]thiophene-2-sulfonamide]", "fold induction at 20 µg/mL": 4.4}
{"compound": "CC[C@H](C)[C@@H](CO)NS(=O)(=O)c1ccc(Cl)o1", "note": "[Example 204, 5-Chloro-N-[(1S,2S)-1-(hydroxymethyl)-2-methylbutyl]-2-furansulfonamide]", "fold induction at 20 µg/mL": 2.8}
{"compound": "C=CCOC1CCC([C@@H](CO)NS(=O)(=O)c2ccc(Cl)s2)CC1", "note": "(stereo partly drawn) [Example 201, N-{(S)-1-[4-(allyloxy)cyclohexyl]-2-hydroxyethyl}-5-chlorothiophene-2-sulfonamide]", "fold induction at 20 µg/mL": 2.2}
{"compound": "CNC1CCC([C@@H](CO)NS(=O)(=O)c2ccc(Cl)s2)CC1", "note": "(stereo partly drawn) [Example 212, 5-chloro-N-[(S)-2-hydroxy-1-(4-methylaminocyclohexyl)ethyl]thiophene-2-sulfonamide]", "fold induction at 20 µg/mL": 1.7}
{"compound": "CCCCCC[C@H](CC)[C@@H](CO)NS(=O)(=O)c1ccc(Br)s1", "note": "[Example 78B, 5-bromo-N-[(1S,2S)-2-ethyl-1-(hydroxymethyl)octyl]thiophene-2-sulfonamide]", "fold induction at 20 µg/mL": 23}
{"compound": "CCC(C)C(C)C(CO)NS(=O)(=O)c1ccc(Cl)s1", "note": "(centres unmarked) [Example 19, 5-Chloro-N-[1-(hydroxymethyl)-2,3-dimethylpentyl]thiophene-2-sulfonamide]", "fold induction at 20 µg/mL": 6}
{"compound": "C=CCNC1CCC([C@@H](CO)NS(=O)(=O)c2ccc(Cl)s2)CC1", "note": "(stereo partly drawn) [Example 215, 5-chloro-N-[(S)-2-hydroxy-1-(4-allylaminocyclohexyl)ethyl]thiophene-2-sulfonamide]", "fold induction at 20 µg/mL": 2}
{"compound": "CCCCCC[C@@H](CCCCC)[C@@H](CO)NS(=O)(=O)c1ccc(Cl)s1", "note": "[Example 44, 5-chloro-N-[(1S,2R)-1-(hydroxymethyl)-2-pentyloctyl]thiophene-2-sulfonamide]", "fold induction at 20 µg/mL": 1.6}
{"compound": "CC(NCCO)[C@@H](CO)NS(=O)(=O)c1ccc(Cl)s1", "note": "(stereo partly drawn) [Example 81, 5-chloro-N-[(1S)-2-[(2-hydroxyethyl)amino]-1-(hydroxymethyl)propyl]-2-thiophenesulfonamide]", "fold induction at 20 µg/mL": 1.5}
{"compound": "Cc1cccc(CSC[C@@H](CO)NS(=O)(=O)c2ccc(Br)s2)c1", "note": "[Example 115, 5-bromo-N-(R-2-hydroxy-1-{[(3-methylbenzyl)thio]methyl}ethyl)thiophene-2-sulfonamide]", "fold induction at 20 µg/mL": 4.4}
{"compound": "CCCCCC[C@H](CC)[C@@H](CO)NS(=O)(=O)c1ccc(Cl)s1", "note": "[Example 77B, 5-chloro-N-[(1S,2S)-2-ethyl-1-(hydroxymethyl)octyl]thiophene-2-sulfonamide]", "fold induction at 20 µg/mL": 16.9}
{"compound": "CCCCC[C@H](c1ccccc1)[C@@H](CO)NS(=O)(=O)c1ccc(Cl)s1", "note": "[Example 45, 5-chloro-N-[(1S,2R)-1-(hydroxymethyl)-2-phenylheptyl]thiophene-2-sulfonamide]", "fold induction at 20 µg/mL": 2.1}
{"compound": "O=S(=O)(N[C@H](CO)C1CCC(N2CCOCC2)CC1)c1ccc(Cl)s1", "note": "(stereo partly drawn) [Example 217, 5-chloro-N-[(S)-2-hydroxy-1-(4-morpholinocyclohexyl)ethyl]thiophene-2-sulfonamide]", "fold induction at 20 µg/mL": 1.8}
{"compound": "CC(C)C[C@@H](c1ccco1)[C@@H](CO)NS(=O)(=O)c1ccc(Cl)s1", "note": "[Example 50, 5-chloro-N-[(1S,2R)-2-(2-furyl)-1-(hydroxymethyl)-4-methylpentyl]thiophene-2-sulfonamide]", "fold induction at 20 µg/mL": 7.7}
{"compound": "CCCCC[C@H](CC(C)C)[C@@H](CO)NS(=O)(=O)c1ccc(Br)s1", "note": "[Example 63, 5-bromo-N-[(1S,2R)-1-(hydroxymethyl)-2-isobutylheptyl]thiophene-2-sulfonamide]", "fold induction at 20 µg/mL": 3.3}
{"compound": "CCC(CO)(CO)NS(=O)(=O)c1ccc(Br)s1", "note": "[Example 108, N-[1,1-bis(hydroxymethyl)propyl]-5-bromothiophene-2-sulfonamide]", "fold induction at 20 µg/mL": 2}
{"compound": "CC(C)C[C@@H](c1ccco1)[C@@H](CO)NS(=O)(=O)c1ccc(Br)s1", "note": "[Example 72, 5-bromo-N-[(1S,2R)-2-(2-furyl)-1-(hydroxymethyl)-4-methylpentyl]thiophene-2-sulfonamide]", "fold induction at 20 µg/mL": 6.4}
{"compound": "CCC(NC)[C@@H](CO)NS(=O)(=O)c1ccc(Cl)s1", "note": "(stereo partly drawn) [Example 79, 5-Chloro-N-[(1S)-1-(hydroxymethyl)-2-(methylamino)butyl]thiophene-2-sulfonamide]", "fold induction at 20 µg/mL": 1.6}
{"compound": "CCCCCC[C@@H](C(C)C)[C@@H](CO)NS(=O)(=O)c1ccc(Cl)s1", "note": "[Example 52, 5-chloro-N-[(1S,2S)-1-(hydroxymethyl)-2-isopropyloctyl]thiophene-2-sulfonamide]", "fold induction at 20 µg/mL": 7}
{"compound": "CC(C)[C@@H](CO)NS(=O)(=O)c1ccc(Cl)s1", "note": "[Example 8, 5-Chloro-N-[(1S)-1-(hydroxymethyl)-2-methylpropyl]thiophene-2-sulfonamide]", "fold induction at 20 µg/mL": 3.3}
{"compound": "CC(C)C[C@@H](c1ccccc1)[C@@H](CO)NS(=O)(=O)c1ccc(Cl)s1", "note": "[Example 47, 5-chloro-N-[(1S,2S)-1-(hydroxymethyl)-4-methyl-2-phenylpentyl]thiophene-2-sulfonamide]", "fold induction at 20 µg/mL": 5.4}
{"compound": "O=S(=O)(NC1(CO)CCCCC1)c1ccc(Br)s1", "note": "[Example 181, 5-bromo-N-[1-(hydroxymethyl)cyclohexyl]thiophene-2-sulfonamide]", "fold induction at 20 µg/mL": 2.6}
{"compound": "CC(C)(CO)NS(=O)(=O)c1ccc(Br)s1", "note": "[Example 107, 5-bromo-N-(2-hydroxy-1,1-dimethylethyl)thiophene-2-sulfonamide]", "fold induction at 20 µg/mL": 1.5}
{"test_system": "amyloid precursor protein (APP) proteolysis", "assay": "Repressor Release Assay (RRA)", "assay_type": "cell-based", "conditions": "read-out: APPI Fold Increase", "procedure,_shortened": "as §1"}
{"compound": "O=S(=O)(NC(CO)C1CCCC1)c1ccc(Cl)s1", "note": "(centres unmarked) [Example 24, 5-chloro-N-(1-cyclopentyl-2-hydroxyethyl)thiophene-2-sulfonamide]", "fold induction at 20 µg/mL": 6}
